Results published in ChEMBL document CHEMBL5107956, “Natural products from mangrove sediments-derived microbes: Structural diversity, bioactivities, biosynthesis, and total synthesis” (Eur J Med Chem, 2022).
Converted amounts (≈) assume the structure as drawn. Values belong to the compound of their own block, whether it stands above or below them.

Columns and labels:
HCT-116 [1] = test: Cytotoxicity against human HCT-116 cells assessed as cell growth inhibition by MTT assay; format: functional, cell-based
[2] = biological target: Prostaglandin G/H synthase 2 (Homo sapiens) (UniProt P35354); test: Inhibition of COX2 (unknown origin) at 20 nM relative to control
HL-60 = test: Antiproliferative activity against human HL-60 cells assessed as cell growth inhibition measured after 72 hrs by CCK-8 assay; format: functional, cell-based; details: HL-60, 72 h
[3] = Toxicity in brine shrimp assessed as induction of lethality; details: artemia salina; read-out: LD50 (the source's name)
[4] = Antioxidant activity assessed as free radical scavenging activity incubated for 30 mins by microplate reader analysis; format: functional
SW-620 = test: Cytotoxicity against human SW-620 cells assessed as cell growth inhibition by SRB assay; format: functional, cell-based
HCT-116 [5] = test: Cytotoxicity against human HCT-116 cells assessed as cell growth inhibition by SRB assay; format: functional, cell-based
SGC-7901 = test: Cytotoxicity against human SGC-7901 cells assessed as cell growth inhibition measured after 48 hrs by MTT assay; format: functional, cell-based; details: SGC-7901, 48 h
A-375 = test: Cytotoxicity against human A-375 cells assessed as cell growth inhibition by MTT assay; format: functional, cell-based
MCF7 [6] = test: Cytotoxicity against human MCF7 cells assessed as cell growth inhibition by MTT assay; format: functional, cell-based
A549 [7] = test: Cytotoxicity against human A549 cells assessed as cell growth inhibition by MTT assay; format: functional, cell-based
HepG2 [8] = test: Cytotoxicity against human HepG2 cells assessed as cell growth inhibition by MTT assay; format: functional, cell-based
[9] = Cytotoxicity against human HM02 cells assessed as cell growth inhibition; format: functional
MCF7 [10] = test: Cytotoxicity against human MCF7 cells assessed as cell growth inhibition; format: functional, cell-based
HepG2 [11] = test: Cytotoxicity against human HepG2 cells assessed as cell growth inhibition; format: functional
[12] = Antiproliferative activity against human Pancreatic cancer cell assessed as cell growth inhibition measured after 24 hrs by CCK-8 assay; format: functional, cell-based
OS-RC-2 = test: Antiproliferative activity against human OS-RC-2 cells assessed as cell growth inhibition measured after 72 hrs by CCK-8 assay; format: functional, cell-based; details: OS-RC-2, 72 h
P388 = test: Cytotoxicity against mouse P388 cells assessed as cell growth inhibition measured after 72 hrs by MTT assay; format: functional, cell-based; details: Mus musculus, P388, 72 h
HCT-116 [13] = test: Cytotoxicity against human HCT-116 cells assessed as cell growth inhibition incubated for 48 hrs by CCK-8 assay; format: functional, cell-based; details: HCT-116, 48 h
A549 [14] = test: Cytotoxicity against human A549 cells assessed as cell growth inhibition incubated for 48 hrs by CCK-8 assay; format: functional, cell-based; details: A549, 48 h
Staphylococcus aureus [15] = test: Antibacterial activity against Staphylococcus aureus ATCC 25923 assessed as bacterial growth inhibition; format: functional, organism-based
[16] = Antioxidant activity assessed as free radical scavenging activity incubated for 30 mins under dark condition by microplate reader analysis; format: functional
Staphylococcus aureus [17] = test: Antibacterial activity against methicillin-resistant Staphylococcus aureus assessed as bacterial cell growth inhibition by agar dilution method; format: functional
Candida albicans [18] = test: Antifungal activity against Candida albicans ATCC 10231 assessed as fungal growth inhibition by agar dilution method; format: functional
Candida albicans [19] = test: Antifungal activity against Candida albicans assessed as fungal growth inhibition measured after 20 hrs; format: functional

Prostaglandin G/H synthase 2 (Homo sapiens), sequence (P35354 whole entry, looked up): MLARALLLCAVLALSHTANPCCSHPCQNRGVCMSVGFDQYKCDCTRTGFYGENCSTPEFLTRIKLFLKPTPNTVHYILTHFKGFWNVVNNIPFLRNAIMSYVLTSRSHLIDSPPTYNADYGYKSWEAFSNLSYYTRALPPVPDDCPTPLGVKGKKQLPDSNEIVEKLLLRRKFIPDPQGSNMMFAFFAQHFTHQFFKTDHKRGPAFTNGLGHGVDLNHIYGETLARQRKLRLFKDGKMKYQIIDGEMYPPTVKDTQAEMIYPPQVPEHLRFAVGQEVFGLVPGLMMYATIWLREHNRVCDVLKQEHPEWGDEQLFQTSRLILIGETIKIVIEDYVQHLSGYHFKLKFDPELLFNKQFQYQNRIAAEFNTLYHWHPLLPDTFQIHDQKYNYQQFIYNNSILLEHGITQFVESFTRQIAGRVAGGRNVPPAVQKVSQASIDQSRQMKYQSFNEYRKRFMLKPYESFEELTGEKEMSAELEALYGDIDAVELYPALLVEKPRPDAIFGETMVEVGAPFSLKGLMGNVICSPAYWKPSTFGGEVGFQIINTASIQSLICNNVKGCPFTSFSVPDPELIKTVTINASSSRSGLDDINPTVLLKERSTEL

Structure (SMILES): COC(=O)Nc1ccc(C)c(NC(=O)N(C)[C@@H]2O[C@H]3C[C@@](C)([C@@H]2OC)n2c4ccccc4c4c5c(c6c7ccccc7n3c6c42)C(=O)NC5)c1
IC50 (HCT-116 [1]): 370 nM

inhibition [2]: 66.3%
Structure (SMILES): CC(C)=CCc1cc(C[C@@]2(CC=C(C)C)OC(=O)C(O)C2c2ccccc2)ccc1O (some centres undefined)

IC50 (HL-60): < 100 nM
Structure (SMILES): C/C=C/[C@H](OC)[C@H](C)/C=C(C)/C=C/C/C(C)=C/Cc1nc(OC)c(OC)c(O)c1C

Structure (SMILES): CCC/C=C/[C@@H]1Cc2cc(O)c(C)c(O)c2C(=O)O1
LC50 [3]: 18.6 µg/mL (≈ 70.9 µM)

IC50 [4]: 4700 nM
Structure (SMILES): O=C(NCCCCO)c1ccc(O)c(O)c1

Structure (SMILES): Cc1cccc2cc3c(c(O)c12)C(=O)CC[C@@H]3O
IC50 (SW-620): 630 nM | IC50 (HCT-116 [5]): 630 nM

Structure (SMILES): CC[C@H]1/C=C/C[C@H](CC(C)C)OC(=O)/C(C)=C\[C@H]2C(=O)NC3=CC(=O)c4c(cc(C)c(O)c4C(=O)CC1)[C@@]32O
IC50 (SGC-7901): 2800 nM

Structure (SMILES): C=C1C(O)[C@@H]2/C=C/C[C@H](C)C(=O)[C@](C)(O)/C=C/OC(=O)O[C@]23C(=O)N[C@@H](Cc2ccc(OC)cc2)[C@@H]3[C@@H]1C (some centres undefined)
IC50 (A-375): 470 nM | IC50 (MCF7 [6]): 470 nM | IC50 (A549 [7]): 470 nM | IC50 (HepG2 [8]): 470 nM

Structure (SMILES): CC(C)CCC[C@H]1CCCCC(=O)O1
GI50 [9]: 0.11 µg/mL (≈ 0.555 µM) | GI50 (MCF7 [10]): 0.11 µg/mL (≈ 0.555 µM) | GI50 (HepG2 [11]): 0.11 µg/mL (≈ 0.555 µM)

Structure (SMILES): CC[C@H]1[C@@H]2C=C[C@@H]3[C@H]4C/C=C\C(=O)NCCC[C@H]5NC(=O)C(=C5O)C(=O)/C=C/[C@@H]4C[C@@H]3[C@H]2C[C@H]1C
IC50 [12]: 1300 nM

Structure (SMILES): C=C(C(C)=O)[C@H](O)[C@H](C)/C=C(C)/C=C/C/C(C)=C/Cc1nc(OC)c(OC)c(O)c1C
IC50 (OS-RC-2): 2200 nM

Structure (SMILES): COc1ccc(C[C@@H]2NC(=O)[C@@]34OC(=O)O/C=C/[C@@](C)(O)C(=O)[C@@H](C)C/C=C/[C@H]3[C@@H]3O[C@]3(C)[C@@H](C)[C@@H]24)cc1
IC50 (A-375): 470 nM | IC50 (MCF7 [6]): 470 nM | IC50 (A549 [7]): 470 nM | IC50 (HepG2 [8]): 470 nM

Structure (SMILES): C=CC(C)(C)c1[nH]c2ccccc2c1/C=C1\NC(=O)[C@]2(C[C@H](C)C=C[C@@H]2CCc2c(O)cc(CC=C(C)C)c(O)c2C=O)NC1=O (stereo in doubt; 251)
IC50 (P388): 3430 nM

Structure (SMILES): C[C@@H]1O[C@@H](Oc2ccc3c(c2)OCC(c2ccc(O)cc2)C3=O)C[C@H](O)[C@@H]1O (some centres undefined)
IC50 (HCT-116 [13]): 13.5 µg/mL (≈ 34.9 µM) | IC50 (A549 [14]): 13.5 µg/mL (≈ 34.9 µM)

Structure (SMILES): CC[C@H](C)CCC[C@H]1CCCCC(=O)O1
GI50 [9]: 0.11 µg/mL (≈ 0.518 µM) | GI50 (MCF7 [10]): 0.11 µg/mL (≈ 0.518 µM) | GI50 (HepG2 [11]): 0.11 µg/mL (≈ 0.518 µM)

Structure (SMILES): CCOC(=O)[C@]1(Cc2ccc(O)c(CC3OC3(C)C)c2)OC(=O)C(O)C1c1ccc(O)cc1 (some centres undefined)
IC50 (Staphylococcus aureus [15]): 21300 nM

IC50 (HL-60): < 100 nM
Structure (SMILES): COc1nc(C/C=C(\C)C/C=C/C(C)=C/[C@@H](C)/C=C(\C)[C@H](C)O)c(C)c(O)c1OC

IC50 [16]: 2400 nM
Structure (SMILES): C=C1C(=O)CC2OC(=O)C(=C(O)C2CC)CCC2(C)CC(C)C(O2)C(C)C1OC (centres undefined)

IC50 [16]: 9300 nM
Structure (SMILES): C/C=C/C=C/CCc1c(O)ccc(O)c1CO

Structure (SMILES): C/C=C(\C)[C@H](O)[C@H](C)/C=C(/C=C/C/C(C)=C/Cc1nc(OC)c(OC)c(O)c1C)CC
IC50 (OS-RC-2): 4500 nM

Structure (SMILES): C/N=C(\NC)NCCC/C=C/CCCC(C)C1OC(=O)/C(C)=C/C=C/C(C)C(O)CC(O)C(C)C(O)CCC(C)C(O)CC2(O)OC(CC(OC(=O)CC(=O)O)CC(O)CC(O)CC(O)/C(C)=C/C=C/C1C)CC(O)C2O (centres undefined)
IC50 (HCT-116 [1]): 1.81 µg/mL | MBC (Staphylococcus aureus [17]): 8 µg/mL (≈ 7.3 µM) | MIC (Staphylococcus aureus [17]): 4 µg/mL (≈ 3.65 µM) | MIC (Candida albicans [18]): 1.65 µg/mL (≈ 1.5 µM)

Structure (SMILES): CCCCC[C@@H]1Cc2cc(O)cc(O)c2C(=O)O1
LC50 [3]: 36.4 µg/mL (≈ 145 µM)

IC50 [4]: 4700 nM
Structure (SMILES): CC(=O)OCCCCNC(=O)c1ccc(O)c(O)c1

Structure (SMILES): COC(C)[C@H]1[C@H]2[C@H](C[C@H]1C)[C@H]1C[C@H]3/C=C/C(=O)C4=C(O)[C@@H](CCCNC(=O)/C=C\C[C@@H]3[C@H]1[C@@H]1O[C@@H]12)NC4=O (some centres undefined)
IC50 [12]: 1300 nM

Structure (SMILES): CC[C@H]1[C@H]2[C@H](C[C@H]1C)[C@H]1C[C@H]3/C=C/C(=O)C4=C(O)[C@@H](CCCNC(=O)/C=C\C[C@@H]3[C@H]1[C@@H]1O[C@@H]12)NC4=O
IC50 [12]: 1300 nM

IC50 (HL-60): < 100 nM
Structure (SMILES): COc1nc(C/C=C(\C)C/C=C/C(C)=C/[C@@H](C)/C=C/[C@@H](C)OC)c(C)c(O)c1OC

MIC (Candida albicans [19]): 5 µg/mL (≈ 9.87 µM)
Structure (SMILES): CCCCCC[C@H]1C(=O)O[C@H](C)[C@H](NC(=O)c2cccc(NC=O)c2O)C(=O)O[C@@H](C)[C@@H]1OC(C)=O

Structure (SMILES): COc1cc(C)c2c(O)c3c(cc2c1)[C@@H](O)CCC3=O
IC50 (SW-620): 630 nM | IC50 (HCT-116 [5]): 630 nM
